From article PMC5309220, “Screening for Small Molecule Inhibitors of Statin-Induced APP C-terminal Toxic Fragment Production” (Frontiers in Pharmacology, 2017)
Entries after “also recorded” stand apart in the source; their conditions may differ. Structures can show the parent of a compound that is named as a salt.

Assays:
[1] = test system: cerivastatin-induced APPΔC31 production in CHO-7W cells; assay: APPΔC31 ELISA validation assay, cerivastatin-induced; format: cell-based, Chinese hamster; details: CHO-7W cells, 10 μM cerivastatin, 24 h; test concentration not given
Method: The APPΔC31 ELISA developed in partnership with Enzo Life Sciences (ADI-900-227) follows a standard sandwich ELISA design wherein a monoclonal N-terminal APP-specific antibody is used to coat the wells of the microtiter plate (capture antibody) and the anti-APPΔC31 cleavage site-specific polyclonal antibody serves as the detection antibody. An HRP-conjugated secondary antibody is then added and a colorimetric signal generated by enzymatic conversion of the tetramethylbenzidine (TMB) substrate. Protein levels were first determined using a colorimetric coomassie assay (Coomassie Plus, Thermo).
A subset of hits from our HTS was validated in a secondary assay. […] Thapsigargin also acts as a sarco/endoplasmic reticulum calcium ATPase (SERCA) inhibitor. Therefore, another SERCA inhibitor, 2,5-Di-tert-butylhydroquinone, was also added to the testing. In this secondary assay, CHO-7W cells were cultured as described above and plated into 24-well dishes at ∼200K/well. […] These hits were selected for their potency in primary screen, their structural features, their known activities, and availability of compound for additional testing. There were cerivastatin-only (negative control), + QVD-OPh (positive control), and for viability, vehicle-only (negative) controls. Cells were harvested by removing the media to a tube, adding […] trypsin to detach cells then neutralizing with media. […] Cells were centrifuged at 5000 rpm (2300 × g) for 5 min. Cell pellets were frozen until use. Forty μL cold RIPA buffer plus complete protease inhibitors (Roche) was added to each pellet and the pellets were reconstituted by pipetting up and down, incubating on ice for 30 min, vortexing, and centrifugation as above. Cell lysate supernatants were then assayed by APPΔC31 ELISA as described above. For most compounds, multiple/repeat studies were performed and two wells used for each condition. Statistical comparison was performed using one-way ANOVA for multiple comparisons, with a Dunnett post hoc test to compare each condition to the control. Further dose-response studies were performed on select compounds.

[2] = test system: cerivastatin-induced APPΔC31 in CHO-7W cells; assay: APPΔC31 AlphaLISA dose-response, cerivastatin-induced; format: cell-based, Chinese hamster; details: 24 h
Method: The APPΔC31 AlphaLISA assay (Figures 2C–E) was run directly in the plate with the cell lysate as described above in “AlphaLISA to detect APPΔC31.” APPΔC31 levels were measured using the Envision plate reader and data were normalized to DMSO (100% APPΔC31 production) and Q-VD-OPh (MP Biomedicals) pan-caspase inhibitor at 30 μM (0%); these controls were present on each plate. In addition, some compounds of interest were further analyzed in a dose-response curve to determine IC50 values.
The broad-spectrum pan-caspase inhibitor Q-VD-OPh served as the positive control.
Lysates were prepared and APPΔC31 determined by ELISA. (B) CHO-7W cells were treated with 10 μM cerivastatin plus increasing doses of caspase and MEK inhibitors for 24 h. Lysates were prepared and APPΔC31 determined by AlphaLISA. Click here for additional data file.

[3] = PAMPA / immobilized artificial membrane (IAM.PC.DD2) chromatography; format: in vitro ADME
Excerpt: Immobilized artificial membrane (IAM) chromatography such as PAMPA (parallel artificial membrane permeability assay) is used to predict a compound’s passive diffusion through membranes and may predict blood-brain barrier (BBB) penetrance.
To minimize variability between PAMPA assays for different compounds, the well-characterized, reliable IAM.PC.DD2 Regis Technologies analytical columns were used. In these 10 cm × 4.6 mm columns, the phospholipid is bonded on 10 μm, 300 Å, spherical aminopropyl silica and end capped with C10 and C3 amides.
Columns were connected to an Agilent high performance liquid chromatography system. […] The mobile phase was a mixture of water and methanol and a gradient was used for the elution of the compounds. The detector was set at 250 and 280 nm. After a compound was eluted, the retention time and void volume times were obtained from the chromatogram.
The IAM capacity factor (KIAM) was calculated using the equation: KIAM=tr−t0/t0 ; where tr is the
retention time of a compounds and t0 is the void volume time of the column. […] To predict the likelihood a compound would be BBB penetrant, we used the correlation described by [Yoon et al. (2006)]:
• (I) If KIAM/MW^4x10^10 > 0.85 the BBB penetration is predicted to be high • (II) If KIAM/MW^4x10^10 < 0.85 the BBB penetration is predicted to be low

[4] = test system: cerivastatin-induced APPΔC31 in I5 mouse hippocampal slice cultures; assay: Ex vivo organotypic hippocampal slice cultures, APPΔC31 ELISA; details: 72 h, read-out: inhibition of APPΔC31 production
Excerpt: I5 mice originally purchased from Jackson labs (JAX B6.Cg-Tg(PDGFB-APP)5Lms/J) were bred and maintained in the Buck Institute vivarium facility, and used under the guidelines of an approved institutional IACUC protocol. P5–7 day mice were sacrificed using CO2 gas and cervical dislocation according to established IACUC protocols. Brains were removed, and under sterile conditions, hippocampi were dissected out on ice in Hybernate media + 1:400 Glutamax, 1:100 Pen/Strep and 1:50 B27 supplement (all Life Technologies). Hippocampi were laid parallel on a tissue chopper (McIlwain) in a small amount of media and sliced at 400 μm thick. Millicell-CM 6-well cell culture inserts (Millipore, 0.4 μm) were prehydrated by pipetting 750 μL culture media under each well and placing in a 35°C, 5% CO2 incubator for at least 30 min. Culture media: 100 mL MEM-HEPES, 50 mL HBSS, 50 mL HI horse serum, 1 mL 100x Pen/Strep (all Gibco), 1.3 g (6.5 mg/mL) glucose, and 2 mL 200 μM (2 mM) Glutamax, sterile filtered. […] Protein was quantitated for each sample using Coomassie Plus reagent (Thermo). […]
Tissue was harvested and lysates analyzed for APPΔC31 by ELISA. Lysates were protein normalized and expressed as a % of control.

CHO-7W cells = assay: Total protein in CHO-7W cell lysates (Coomassie Plus); format: cell-based, Chinese hamster; details: QVD, spiperone, 3′fluorobenzylspiperone at 30, 10, and 10 μM, respectively, with 10 μM cerivastatin, n = 1
Method: (§1) In an additional study (Supplementary Figure S5A), measurement of the α secretase fragment of full length (FL) APP – soluble APP alpha (sAPPα) – was performed using cell media by ELISA (IBL). Furthermore, in two studies (Supplementary Figures S5B,C), total protein levels in CHO-7W cell lysates were determined by Coomassie Plus protein assay (Pierce).
(§2) Supplementary file Data_Sheet_1.docx: FIGURE S5 Effect of lead compounds on protein concentration and sAPPα. […] (B) Total protein from lysates of CHO-7W cells treated with either 30 μM QVD or 10 μM Sp alone for 24 h was similar to the vehicle control (n = 1). (C) Total protein from CHO-7W lysates treated with 10 μM CS alone or in combination with QVD, Sp, or 3′F-Sp at the concentrations shown increased (n = 1). Statistical analysis was performed using one-way ANOVA and Dunnett post-test for comparison to the 10 μM CS control (^∗∗p < 0.001, ^∗∗∗p < 0.0001). Click here for additional data file.

sAPPα in CHO-7W cultures = assay: sAPPα ELISA in cell media; format: cell-based, Chinese hamster; details: QVD, Sp, 3′F-Sp at 10, 30, and 30 mM, respectively (so in the source), with 10 μM cerivastatin, 24 h, vs CS alone, n = 2
Method: as §1, §2

[5] = test system: cerivastatin-induced APPΔC31 in CHO-7W cells; assay: APPΔC31 immunoblot of CHO-7W cell lysates; format: cell-based, Chinese hamster; details: compound at 30 μM, 10 μM cerivastatin, 24 h
Method: For immunoprecipitation, approximately 300 μg cell lysate supernatants were brought to 250 μL with cold RIPA + PI buffer in microfuge tubes. One μL of 6E10 APP antibody (Covance) was added and the mixture was rotated overnight in a cold room. The next day, 25 μL of protein A/G beads (Santa Cruz Biotech) were added and the samples were rotated for 1.5 h in the cold room. The beads were then centrifuged down and washed four times with cold PBS. Forty μL 1x LDS sample buffer + DTT was added to the pellets, which were heated to 70°C for 10 min, vortexed and centrifuged. Supernatants were loaded onto Nupage 4–12% Bis-Tris gels (Life Technologies) for electrophoresis and were then transferred to 0.2 μm PVDF membrane for immunoblotting with the anti-APPΔC31 antibody.
(A) CHO-7W cells were treated with 10 μM cerivastatin (CS) along with varying concentrations of Q-VD-OPh (QVD) for 24 h. Cell lysates were prepared and immunoprecipitated with anti-APP (6E10) overnight at 4°C and then incubation with Protein A/G beads (Santa Cruz Biotech). The resulting pellets were incubated, electrophoresed using Nupage 4–12% Bis-Tris gels (Life Technologies) and the 0.2 μm PVDF membrane probed with anti-APPΔC31. (B) CHO-7W cells were treated with increasing concentrations of CS or 10 μM CS together with increasing concentrations of 3′-fluorobenzylspiperone maleate (3′-F-Sp) or 30 μM QVD for 24 h. […]

[6] = test system: APPΔC31 production in CHO-7W cells; assay: Statin induction of APPΔC31, ELISA; format: cell-based, Chinese hamster; details: 24 h, statins at 1, 5 and 10 μM
Method: An HRP-conjugated secondary antibody is then added and a colorimetric signal generated by enzymatic conversion of the tetramethylbenzidine (TMB) substrate. Protein levels were first determined using a colorimetric coomassie assay (Coomassie Plus, Thermo).
APPΔC31 was determined in cell lysates by ELISA.

in vitro = details: Chinese hamster

| Compound | APPΔC31 Inh. (mean %) [1] | % Min (APPΔC31 dose-response) ([2]; AlphaLISA dose-response (Figure 5C), cerivastatin-stimulated) | IC50 ([2]; Cricetulus griseus, (A) AlphaLISA, cerivastatin-induced, read-out: IC50 (A), APPΔC31 inhibition) | KIAM (IAM capacity factor) ([3]; IAM.PC.DD2 column, water/methanol gradient) | KIAM/MW^4 x 10^10 ([3]; IAM.PC.DD2 column, correlation of Yoon et al. (2006)) | BBB Penetration Prediction ([3]; from KIAM/MW^4 x 10^10, cut-off 0.85) | inhibition at 30 µM [4] | effect on total protein concentration with cerivastatin (in words) (CHO-7W cells) | effect on sAPPα (in words) (sAPPα in CHO-7W cultures) | effect on CS-induced APPΔC31 by immunoblot (in words) [5] | induction of APPΔC31 (in words) [6] | viability at 24 h, 10 µM (in vitro) |
| --- | --- | --- | --- | --- | --- | --- | --- | --- | --- | --- | --- | --- |
| O=C(CCCN1CCC2(CC1)C(=O)N(Cc1cccc(F)c1)CN2c1ccccc1)c1ccc(F)cc1 [3′Fluorobenzylspiperone maleate, 3′-fluorobenzylspiperone maleate] | 78% | 25% | 2200 nM | 3.2 | 0.50 | low (If KIAM/MW^4x10^10 < 0.85 the BBB penetration is predicted to be low) | ~82% | increased total protein concentration | increased sAPPα | decreased |  |  |
| COCc1c(C(C)C)nc(C(C)C)c(/C=C/[C@@H](O)C[C@@H](O)CC(=O)O)c1-c1ccc(F)cc1 [Cerivastatin] |  |  |  |  |  |  |  |  |  |  | most effective; also recorded: did so at 1, 5, and 10 μM | 15% |
